Data from patent publication US7648966B2, “Mannose-6-phosphonate compounds for the treatment of inflammatory diseases” (Pharmaxis Pty Limited, priority 2003, dated 2010).

Experiments:
[1] = tested on: passively transferred adjuvant-induced arthritis; test: Passively transferred adjuvant arthritis; type: in vivo, DA rats; conditions: for swelling in the affected joints at the end of the treatment period: controls severe swelling
Protocol: The experiment in this Example was designed to study the effect of the agents of the present invention in vivo on a disease that requires T lymphocyte migration into a specific tissue (synovium). Male DA rats, 8 to 10 week old, were immunized with three 100 μl injections of CFA intradermally at the base of the tail. The CFA was prepared by mixing 8 mg/ml of M. butyricum (Difco Laboratories, USA) that had been ground to a fine powder using a mortar and pestle, in 85% light mineral oil (Sigma, USA) and 15% mannide monooleate (Sigma) and emulsifying this suspension, one part in one part saline. Thus, the final emulsion contained 4 mg/ml of M. butyricum. Ten days after immunization, the rats were euthanized and their spleens removed aseptically. A single cell suspension in lymphocyte culture medium with 10% FCS was prepared as described above and adjusted to a concentration of 2×10^6 cells/ml. Con A was added at a final concentration of 2 μg/ml. The cells were cultured at 37° C. in an atmosphere of 5% carbon dioxide for 72 hours. Groups of 4 or 5 DA rats, 6 to 8 weeks of age were anesthetized with diethyl ether and implanted sc on the flank with Alzet 2002 (“2 week delivery”) or Alzet 2001 (“1 week delivery”) mini-osmotic pumps (Alza Corp., Palo Alto Calif., USA). One treatment group received 1-(2,4,-diimethyl phenyl)-6-phosphono-mannoside in the one week delivery Alzet 2001 mini-osmotic pumps. The drug was delivered at a dose of 25 mg/kg/day. The control group for this experiment received identical mini-osmotic pumps containing normal saline. In a second experiment another group of DA rats received 1-(2,4,-diimethyl phenyl)-6-phosphono-mannoside in the “2 week delivery” Alzet 2002 mini-osmotic pumps. This drug was delivered at a dose of 37 mg/kg/day. Control animals for this group received saline delivered in identical mini-osmotic pumps. While the animals were recovering from anesthesia, the above cultured lymphocytes which had been harvested and washed twice in HBSS were resuspended in normal saline and injected iv (lateral tai vein) into recipient rats, each of which received 75-90×10^6 cells in 0.5 ml. After 5 to 8 days, a characteristic thickening and cutaneous hyperemia of the distal joints of the hind legs became clinically apparent in saline treated control animals. Disease severity was evaluated and graded in each group by daily measurement of the mediolateral widths of both ankle joints. The data were expressed as the mean of the change (compared with width prior to cell injection) in mediolateral ankle width expressed in millimeters (±standard error of the mean).

[2] = tested on: 51Cr-labeled T lymphocyte migration into the spleen; test: Inhibition of lymphocyte migration into lymphoid tissue (spleen) in vivo; design: species or system Balb/c mice; conditions: 5 mg per mouse iv with labeled cells; spleens removed 1.5 hours after injection; vs negative controls
Protocol: Lymphocytes were obtained from spleens of 6-8 week old female specific pathogen-free Balb/c mice (19-21 g). Single cell suspensions prepared by conventional means (pushing through a stainless steel screen). Red blood cells were lysed by treating with a solution of bicarbonate buffered ammonium chloride-EDTA (pH 7.3) and the preparation strained through a Falcon 2350 cell strainer. All cell preparative steps were performed on ice. Cell were suspended in a conventional lymphocyte culture medium (DMEM plus glucose, folic acid, L-asparagine, sodium bicarbonate, L-glutamine, sodium pyruvate, HEPES, 2-mercaptoethanol, penicillin, streptomycin, neomycin, and 2% FCS).
B lymphocytes were depleted by suspending the cells in purified rat anti-mouse CD45/B220 antibody (RA3-6B2 clone; PharMingen, USA) at a concentration of 4×10^7 cells/ml and incubated on ice for 20 minutes. An equal volume of culture medium (as above) was added and the cells centrifuged (200×g) and resuspended at a concentration of 10^7 cells/ml in BioMag goat ant-rat IgG (H&L) (“GARIG”) conjugated to magnetic beads (Bio Mag; Perseptive Diagnostics, Polysciences, Inc., USA). Following a 20 minute incubation on ice, with agitation every 5 minutes, cells binding to the GARIG/anti-CD45/B220 antibody complex were removed using magnetic separation (Dynal MPC-6, Dynal, USA). This procedure was repeated 4 times, resulting in a cell population containing approximately 80-90% T lymphocytes (determined by FACS analysis).
The cells were then washed in Hanks balanced salt solution (HBSS), resuspended in 5 ml of HBSS, and radiolabeled with ^51Cr for 30 minutes at 37° C. (as described above). The labeled cells were washed in PBS, centrifuged (200×g), and a portion were resuspended at a concentration of 3×10^7 cells/ml in either PBS (negative control) or PBS containing phenyl mannoside 6-phosphate (25 mg/ml in PBS; positive control) or PBS containing the test compound (25 mg/ml), and stored on ice. Cell viability was confirmed throughout the procedures by trypan blue exclusion. Balb/c mice were injected intravenously (iv) into the lateral tail vein with 0.2 ml containing 6×10^6 labeled lymphocytes and 0.2 ml of either PBS (negative control), 5 mg positive control or 5 mg test compound. All groups of mice were weight matched (±0.5 g).
Spleens from recipient mice were removed 1.5 hours after injection, and the cell-associated radioactivity was determined using a gamma counter (as above). Results of inhibition of lymphocyte migration into the spleen were expressed as a percentage reduction in the CPM of the spleens from treated animals compared with negative controls.
The phosphono-mannoside compounds of the present invention and their relative inhibition of lymphocyte migration in vivo (compared to negative controls) are presented in Table 2.

## Cc1ccc(O[C@H]2O[C@H](CCP(=O)(O)O)[C@@H](O)[C@H](O)[C@@H]2O)c(C)c1
[1]; 25 mg/kg/day, end of one week treatment
  difference in disease status of treated versus control animals: highly statistically significant difference
[1]; 25 mg/kg/day, one week delivery Alzet 2001 pump
  swelling in the affected joints at the end of the treatment period: little swelling
[1]; 37 mg/kg/day, end of two week treatment
  difference in disease status of treated versus control animals: highly statistically significant difference
[1]; 37 mg/kg/day, two week delivery Alzet 2002 pump
  swelling in the affected joints at the end of the treatment period: little swelling
[2]
  % Inhibition of lymphocyte migration into spleens: 82.4%
